≈ marks a conversion by molar mass, not a printed value.

This is an account of results in ChEMBL document CHEMBL3044818, “Fungicide resistance status in French populations of the wheat eyespot fungi Oculimacula acuformis and Oculimacula yallundae” (Pest Manag Sci, 2013).

Experiment [1] relates to Oculimacula yallundae. The experiment is described as follows: Resistance index, ratio of EC50 for sterol 14alpha-demethylation inhibitor-resistant Oculimacula yallundae TriR2 to EC50 for wild type Oculimacula yallundae TriS by mycelial growth inhibition assay. The experiment is classed as functional.
A short description of experiment [2]: Selectivity index, ratio of EC50 for Oculimacula acuformis to EC50 for Oculimacula yallundae in presence of 10 g glucose by mycelial growth inhibition assay. The experiment is classed as functional.
Experiment [3] relates to Oculimacula yallundae. The experiment can be described thus: Resistance index, ratio of EC50 for sterol 14alpha-demethylation inhibitor-resistant Oculimacula yallundae TriR1 to EC50 for wild type Oculimacula yallundae TriS by germ tube elongation assay. The experiment is classed as functional.
Experiment [4] deals with Oculimacula acuformis. The experiment can be described thus: Fungicidal activity against Oculimacula acuformis assessed as inhibition of germ tube elongation incubated at 19 degC in dark for 48 hr. The experiment is classed as functional, organism-based.
The test system of experiment [5] is Oculimacula yallundae. The experiment can be described thus: Resistance index, ratio of EC50 for sterol 14alpha-demethylation inhibitor-resistant Oculimacula yallundae MDR to EC50 for wild type Oculimacula yallundae TriS by germ tube elongation assay. The experiment is classed as functional.
Experiment [6] relates to Oculimacula yallundae. The experiment is described as follows: Fungicidal activity against Oculimacula yallundae assessed as inhibition of mycelial growth in presence of 5 g sodium succinate incubated at 19 degC in dark for 4 weeks. Conditions: 672 h. The experiment is classed as functional, organism-based.
Experiment [7] deals with Oculimacula yallundae. The experiment can be described thus: Fungicidal activity against Oculimacula yallundae assessed as inhibition of germ tube elongation incubated at 19 degC in dark for 48 hr. The experiment is classed as functional, organism-based.
In experiment [8] the test system is Oculimacula yallundae. The experiment is described as follows: Fungicidal activity against Oculimacula yallundae assessed as inhibition of mycelial growth in presence of 10 g glucose incubated at 19 degC in dark for 4 weeks. The experiment is classed as functional, organism-based. Conditions: 672 h.
In experiment [9] the test system is Oculimacula yallundae. The experiment can be described thus: Resistance index, ratio of EC50 for sterol 14alpha-demethylation inhibitor-resistant Oculimacula yallundae MDR to EC50 for wild type Oculimacula yallundae TriS by mycelial growth inhibition assay. The experiment is classed as functional.
The subject of experiment [10] is Oculimacula acuformis. The experiment can be described thus: Fungicidal activity against Oculimacula acuformis assessed as inhibition of mycelial growth in presence of 5 g sodium succinate incubated at 19 degC in dark for 4 weeks. Conditions: 672 h. The experiment is classed as functional, organism-based.
The test system of experiment [11] is Oculimacula yallundae. The experiment is described as follows: Resistance index, ratio of EC50 for sterol 14alpha-demethylation inhibitor-resistant Oculimacula yallundae MDR to EC50 for sterol 14alpha-demethylation inhibitor-resistant Oculimacula yallundae TriR1 by mycelial growth inhibition assay. The experiment is classed as functional.
Experiment [12] deals with Oculimacula acuformis. The experiment can be described thus: Fungicidal activity against Oculimacula acuformis assessed as inhibition of mycelial growth in presence of 10 g glucose incubated at 19 degC in dark for 4 weeks. Conditions: 672 h. The experiment is classed as functional, organism-based.
Experiment [13] in a line: Selectivity index, ratio of EC50 for Oculimacula acuformis to EC50 for Oculimacula yallundae in presence of 5 g sodium succinate by mycelial growth inhibition assay. The experiment is classed as functional.
In experiment [14] the test system is Oculimacula yallundae. The experiment is described as follows: Resistance index, ratio of EC50 for sterol 14alpha-demethylation inhibitor-resistant Oculimacula yallundae TriR2 to EC50 for wild type Oculimacula yallundae TriS by germ tube elongation assay. The experiment is classed as functional.
Experiment [15] deals with Oculimacula yallundae. The experiment is described as follows: Resistance index, ratio of EC50 for sterol 14alpha-demethylation inhibitor-resistant Oculimacula yallundae MDR to EC50 for sterol 14alpha-demethylation inhibitor-resistant Oculimacula yallundae TriR1 by germ tube elongation assay. The experiment is classed as functional.
Experiment [16] deals with Oculimacula yallundae. The experiment can be described thus: Resistance index, ratio of EC50 for sterol 14alpha-demethylation inhibitor-resistant Oculimacula yallundae TriR2 to EC50 for sterol 14alpha-demethylation inhibitor-resistant Oculimacula yallundae TriR1 by mycelial growth inhibition assay. The experiment is classed as functional.
For experiment [17], the system named is Oculimacula yallundae. The experiment can be described thus: Resistance index, ratio of EC50 for sterol 14alpha-demethylation inhibitor-resistant Oculimacula yallundae TriR2 to EC50 for sterol 14alpha-demethylation inhibitor-resistant Oculimacula yallundae TriR1 by germ tube elongation assay. The experiment is classed as functional.
Experiment [18] is described as follows: Selectivity index, ratio of EC50 for Oculimacula acuformis to EC50 for Oculimacula yallundae by germ tube elongation inhibition assay. The experiment is classed as functional.
Experiment [19] has as its system Oculimacula yallundae. The experiment can be described thus: Resistance index, ratio of EC50 for sterol 14alpha-demethylation inhibitor-resistant Oculimacula yallundae TriR1 to EC50 for wild type Oculimacula yallundae TriS by mycelial growth inhibition assay. The experiment is classed as functional.
The test system of experiment [20] is Oculimacula yallundae. The experiment can be described thus: Resistance index, ratio of EC50 for prochloraz-resistant Oculimacula yallundae isolate ProR2 to EC50 for prochloraz-susceptible Oculimacula yallundae isolate ProS by mycelial growth inhibition assay. The experiment is classed as functional.
Experiment [21] has as its system Oculimacula yallundae. The experiment can be described thus: Resistance index, ratio of EC50 for prochloraz-resistant Oculimacula yallundae isolate ProR1 to EC50 for prochloraz-susceptible Oculimacula yallundae isolate ProS by mycelial growth inhibition assay. The experiment is classed as functional.
Experiment [22] concerns Oculimacula yallundae. The experiment can be described thus: Fungicidal activity against prochloraz-susceptible Oculimacula yallundae isolate ProS assessed as inhibition of germ tube elongation incubated at 19 degC in dark for 48 hr. The experiment is classed as functional, organism-based.
Experiment [23] relates to Oculimacula yallundae. The experiment is described as follows: Fungicidal activity against prochloraz-susceptible Oculimacula yallundae isolate ProS assessed as inhibition of mycelial growth in presence of 10 g glucose incubated at 19 degC in dark for 4 weeks. The experiment is classed as functional, organism-based. Conditions: 672 h.
The subject of experiment [24] is Oculimacula yallundae. The experiment is described as follows: Resistance index, ratio of EC50 for prochloraz-resistant Oculimacula yallundae isolate ProR1 to EC50 for prochloraz-susceptible Oculimacula yallundae isolate ProS by germ tube elongation inhibition assay. The experiment is classed as functional.
In experiment [25] the test system is Oculimacula yallundae. The experiment is described as follows: Resistance index, ratio of EC50 for prochloraz-resistant Oculimacula yallundae isolate ProR2 to EC50 for prochloraz-susceptible Oculimacula yallundae isolate ProS by germ tube elongation inhibition assay. The experiment is classed as functional.

As for `O=C(Nc1ccccc1-c1ccc(Cl)cc1)c1cccnc1Cl` [BOSCALID], the “Ratio EC50” value was 1 with Oculimacula yallundae [1]; 0.08 in [2]; 1.1 in the experiment on Oculimacula yallundae [3]; 5 in the experiment with Oculimacula yallundae [5]; 7.5 in the experiment with Oculimacula yallundae [9]; 10 with Oculimacula yallundae [11]. For the same compound, the Ratio EC50 in experiment [13] is 0.06; in the experiment with Oculimacula yallundae [14] it was 1.3; with Oculimacula yallundae [15], 4.5; with Oculimacula yallundae [16], 1.3; in the experiment with Oculimacula yallundae [17], 1.2; in experiment [18], 0.8. Besides, in the experiment on Oculimacula yallundae [19], the “Ratio EC50” value came to 0.8. Moreover, the concentration giving a half-maximal response (EC50) (commonly the concentration that produces a half-maximal response) with Oculimacula acuformis [4] was 0.025 mg/L (≈ 0.0728 µM); in the experiment with Oculimacula yallundae [6] it was 5 mg/L; with Oculimacula yallundae [7] it was 0.03 mg/L (≈ 0.0874 µM); in the experiment on Oculimacula yallundae [8], 0.4 mg/L; in the experiment with Oculimacula acuformis [10], 0.3 mg/L; with Oculimacula acuformis [12], 0.3 mg/L.

Take `Clc1ccc(C2(Cn3cncn3)CC(Br)CO2)c(Cl)c1` (stereo not given) [BROMUCONAZOLE]: the “Ratio EC50” value is 10 with Oculimacula yallundae [1]; 8.5 in experiment [2]; 33 in the experiment on Oculimacula yallundae [3]; 83 in the experiment with Oculimacula yallundae [5]; 10 in the experiment with Oculimacula yallundae [9]; 0.5 in the experiment with Oculimacula yallundae [20]. Moreover, the “Ratio EC50” value with Oculimacula yallundae [11] stood at 2; in the experiment on Oculimacula yallundae [21], 0.3; in the experiment on Oculimacula yallundae [14], 40; with Oculimacula yallundae [15], 2.5; in the experiment with Oculimacula yallundae [24], 0.6; with Oculimacula yallundae [16], 2. The “Ratio EC50” value in the experiment on Oculimacula yallundae [17] was 1.2; in [18], 27; with Oculimacula yallundae [25], 1; in the experiment on Oculimacula yallundae [19], 5. Also, the EC50 in the experiment on Oculimacula acuformis [4] was 0.8 mg/L (≈ 2.12 µM); in the experiment on Oculimacula yallundae [7], 0.03 mg/L (≈ 0.0796 µM); in the experiment with Oculimacula yallundae [8], 0.2 mg/L; with Oculimacula acuformis [12], 1.5 mg/L; in the experiment on Oculimacula yallundae [22], 0.8 mg/L (≈ 2.12 µM); in the experiment with Oculimacula yallundae [23], 1.5 mg/L.

For `CCCN(CCOc1c(Cl)cc(Cl)cc1Cl)C(=O)n1ccnc1` [PROCHLORAZ], the “Ratio EC50” value in the experiment with Oculimacula yallundae [1] stood at 30; in experiment [2], 0.8; in the experiment with Oculimacula yallundae [3] it was 1.4; with Oculimacula yallundae [5], 100; in the experiment on Oculimacula yallundae [9], 3; in the experiment on Oculimacula yallundae [20], 25. Besides, the “Ratio EC50” value in the experiment on Oculimacula yallundae [11] came to 2; in the experiment on Oculimacula yallundae [21] it was 25; with Oculimacula yallundae [14], 240; with Oculimacula yallundae [15], 71; in the experiment with Oculimacula yallundae [24], 63; in the experiment with Oculimacula yallundae [16], 20. In addition, the “Ratio EC50” value is 171 in the experiment on Oculimacula yallundae [17], 0.8 in [18], 75 with Oculimacula yallundae [25] and 1.5 with Oculimacula yallundae [19]. Further, the EC50 in the experiment on Oculimacula acuformis [4] worked out at 0.004 mg/L (≈ 0.0106 µM); in the experiment with Oculimacula yallundae [7], 0.005 mg/L (≈ 0.0133 µM); in the experiment on Oculimacula yallundae [8] it was 0.05 mg/L; in the experiment with Oculimacula acuformis [12], 0.04 mg/L; in the experiment with Oculimacula yallundae [22], 0.004 mg/L (≈ 0.0106 µM); in the experiment on Oculimacula yallundae [23] it was 0.04 mg/L.

In the case of `OC(Cc1ccccc1Cl)(Cn1nc[nH]c1=S)C1(Cl)CC1` (stereo not given) [PROTHIOCONAZOLE], the “Ratio EC50” value in the experiment with Oculimacula yallundae [1] came out at 2; in experiment [2] it was 1.3; with Oculimacula yallundae [3] it was 1.3; in the experiment on Oculimacula yallundae [5], 38; in the experiment on Oculimacula yallundae [9], 4.5; in the experiment on Oculimacula yallundae [20] it was 2.4. In addition, the “Ratio EC50” value with Oculimacula yallundae [11] amounted to 1.8; in the experiment on Oculimacula yallundae [21], 1.6; in the experiment with Oculimacula yallundae [14], 1.3; in the experiment with Oculimacula yallundae [15], 30; in the experiment on Oculimacula yallundae [24], 1.2; in the experiment with Oculimacula yallundae [16], 0.8. Moreover, the “Ratio EC50” value was 1 with Oculimacula yallundae [17], 0.8 in experiment [18], 1.5 with Oculimacula yallundae [25] and 2.5 in the experiment with Oculimacula yallundae [19]. For the same compound, the concentration for a half-maximal effect (EC50) in the experiment on Oculimacula acuformis [4] stood at 0.06 mg/L (≈ 0.174 µM); in the experiment with Oculimacula yallundae [7], 0.08 mg/L (≈ 0.232 µM); in the experiment on Oculimacula yallundae [8] it was 0.4 mg/L; in the experiment on Oculimacula acuformis [12], 0.5 mg/L; in the experiment with Oculimacula yallundae [22] it was 0.06 mg/L (≈ 0.174 µM); in the experiment with Oculimacula yallundae [23], 0.5 mg/L.
